In US9938232B2, “LED photoinitiators” (SUN CHEMICAL CORPORATION, priority 2014, dated 2018):

Columns and labels:
[1] = Solubility in multifunctional acrylates; type: physicochemical; conditions: 10 and 20 weight % in PPTTA, TMPTA and EO-TMPTA, stirred 10 minutes at 45° C.
Protocol: • Mn: 1050 Da, Mw 1360 Da • IR: v [cm-1]: 3318, 2930, 2861, 1716 (s), 1641, 1590 (vs), 1525, 1450, 1364, 1284, 1228, 1146, 1068, 927, 826, 770 Solubility: • The product as obtained according to Example 10 was added to different multifunctional acrylates to check solubility. Propoxylated pentaerythritol tetraacrylate (SR 494 LM, Sartomer company) (PPTTA), trimethylol propane triacrylate (SR 351M, Sartomer company) (TMPTA) and ethoxylated trimethylol propane triacrylate (Ebecryl LEO 10501, Allnex company) (EO-TMPTA) were used. The compound of example 10 was added in amounts of 10 and 20 weight % to each of the acrylates and stirred for 10 minutes at 45° C. In all cases (even at 20 weight %), clear, intense yellow, transparent mixtures were obtained.

UV-spectra measurement = type: physicochemical
Protocol: Spectra were acquired using a Unicam UV-2 UV/VIS spectro-photometer. All absorption spectra were obtained using 1 cm cuvettes, scanning within the 200-800 nm range. Solutions were prepared in a 100 cm^3 volumetric flask, and, if required, subsequently diluted so that a maximum absorbance of less than 2 was obtained. From the absorption the molar extinction coefficient e was calculated in liter*mol^−1*cm^−1.

[2] = Solubility in water and organic solvents (observation); type: physicochemical
Protocol: After cooling, the pH of the solution was adjusted to 4 with about 100 ml of a 50 wt % aqueous solution of acetic acid to precipitate a yellow solid. The solid was collected by filtration and dissolved in a saturated aqueous solution (100 ml) of sodium carbonate. Insoluble material was removed by filtration and the pH of the filtrate was adjusted to 5 to 6 with aqueous acetic acid to precipitate a yellow solid. The solid was collected by filtration and re-crystallized from 130 ml ethanol.

With CCCCOCC(COC(=O)c1cc(N(C)C)ccc1C(=O)c1ccc(N(C)C)cc1)OC(=O)NCCCCCCNC(=O)OC(COCCCC)COC(=O)c1cc(N(C)C)ccc1C(=O)c1ccc(N(C)C)cc1 (stereo not shown) [Example 10] the “Solubility in multifunctional acrylates” value [1] was “very good solubility”.

For CN(C)c1ccc(C(=O)c2ccc(N(C)C)cc2C(=O)[O-])cc1.[K+] [Example 6, 5-(dimethylamino)-2-[4-(dimethylamino)benzoyl]-benzoic acid potassium salt], the “UV-spectroscopy: λmax (H2O)” value (UV-spectra measurement; in H2O) was 365 nm, the Molar extinction coefficient (UV-spectra measurement; in water) was 36192 L/mol/cm and the “Solubility in methylene chloride” value ([2]; methylene chloride) was “limited solubility in methylene chloride”. The Solubility in water ([2]; water) was “good solubility in water”.

In the case of CN(C)c1ccc(C(=O)c2ccc(N(C)C)cc2C(=O)O)cc1 [Example 2, 5-(dimethylamino)-2-[4-(dimethylamino)benzoyl]-benzoic acid], the “Solubility in DMSO” value ([2]; DMSO) is reported as “soluble in DMSO” and the melting point is reported as 269 to 272 °C.
